Laboratory results taken from ChEMBL document CHEMBL5512671, “Structure-Based Optimization of Novel Sterol 24-C-Methyltransferase Inhibitors for the Treatment of Candida albicans Infections” (J Med Chem, 2024).
Converted amounts (≈) assume the structure as drawn.

How the values were obtained:
Candida albicans [1] = assay: Antifungal activity against Candida albicans SC5314 assessed as inhibition of hyphae growth incubated for 24 hrs by CLSI protocol based broth microdilution method; assay type: functional
Candida albicans [2] = assay: Antifungal activity against Candida albicans SC5314 assessed as inhibition of fungal growth incubated for 24 hrs by CLSI protocol based broth microdilution method; assay type: functional
[3] = Cytotoxicity against human BEAS-2B cells incubated for 48 hrs by CCK-8 method; assay type: toxicity, cell-based
[4] = Hemolytic activity in mouse RBC assessed as hemolysis at 2 to 32 ug/ml incubated for 60 mins by absorbance based analysis relative to control; assay type: toxicity, cell-based, Erythrocyte; details: mouse red blood cells, at 2 to 32 µg/mL, dose 2-32 µg/ml, read-out: Activity
[5] = Cytotoxicity against human HUVEC cells incubated for 48 hrs by CCK-8 method; assay type: toxicity, cell-based

Row | SMILES | MIC50 (Candida albicans [1]) [µg/mL] | MIC80 (Candida albicans [2]) [µg/mL] | EC50 at 48 h [3] [µg/mL] | hemolysis at 1 h [4] [%] | EC50 at 48 h [5] [µg/mL]
1 | COc1ccc(/N=c2\scc(-c3ccc(Br)cc3)n2-c2c(C)n(C)n(-c3ccccc3)c2=O)cc1 | 16 (≈ 29.2 µM) | > 128 |  |  | 
2 | Cc1c(-n2c(-c3ccc4ccc5cccc6ccc3c4c56)cs/c2=N\c2ccccc2)c(=O)n(-c2ccccc2)n1C | > 128 | > 128 |  |  | 
3 | Cc1c(-n2c(-c3ccc(O)cc3)cs/c2=N\c2ccc(Br)cc2)c(=O)n(-c2ccccc2)n1C | > 128 | > 128 |  |  | 
4 | COc1cc(-c2cs/c(=N\c3ccccc3)n2-c2c(C)n(C)n(-c3ccccc3)c2=O)cc(OC)c1OC | > 128 | > 128 |  |  | 
5 | Cc1c(-n2c(-c3cccc(Cl)c3)cs/c2=N\c2ccccc2)c(=O)n(-c2ccccc2)n1C | > 128 | > 128 |  |  | 
6 | Cc1c(-n2c(C3CC3)cs/c2=N\c2ccccc2)c(=O)n(-c2ccccc2)n1C | > 128 | > 128 |  |  | 
7 | COc1ccc(/N=c2\scc(-c3ccc4ccccc4c3)n2-c2c(C)n(C)n(-c3ccccc3)c2=O)cc1 | 4 (≈ 7.71 µM) | > 128 |  |  | 
8 | Cc1c(-n2c(-c3cccc([N+](=O)[O-])c3)cs/c2=N\c2ccccc2)c(=O)n(-c2ccccc2)n1C | > 128 | > 128 |  |  | 
9 | Cc1c(-[n+]2c(-c3ccc(Br)cc3)csc2N(C)c2ccccc2)c(=O)n(-c2ccccc2)n1C.[I-] | > 128 | > 128 |  |  | 
10 | Cc1c(-n2c(-c3ccc(Br)cc3)cs/c2=N\c2ccc(C(F)(F)F)cc2)c(=O)n(-c2ccccc2)n1C | 8 (≈ 13.7 µM) | > 128 |  |  | 
11 | Cc1c(-n2c(-c3ccc(Br)cc3)cs/c2=N\c2cccnc2)c(=O)n(-c2ccccc2)n1C | > 128 | > 128 |  |  | 
12 | Cc1c(-n2c(-c3ccc(Cl)cc3Cl)cs/c2=N\c2ccc(Br)cc2)c(=O)n(-c2ccccc2)n1C | > 128 | > 128 |  |  | 
13 | Cc1c(-n2c(-c3ccc(O)c(C=O)c3)cs/c2=N\c2ccc(Br)cc2)c(=O)n(-c2ccccc2)n1C | > 128 | > 128 |  |  | 
14 | COc1cccc(-c2cs/c(=N\c3ccccc3)n2-c2c(C)n(C)n(-c3ccccc3)c2=O)c1 | > 128 | > 128 |  |  | 
15 | C=CC(=O)Nc1cccc(-c2cs/c(=N\c3ccccc3)n2-c2c(C)n(C)n(-c3ccccc3)c2=O)c1 | > 128 | > 128 |  |  | 
16 | Cc1c(-n2c(-c3ccc(F)cc3)cs/c2=N\c2ccccc2)c(=O)n(-c2ccccc2)n1C | > 128 | > 128 |  |  | 
17 | Cc1c(-n2c(-c3cccnc3)cs/c2=N\c2ccccc2)c(=O)n(-c2ccccc2)n1C | > 128 | > 128 |  |  | 
18 | Cc1c(-n2c(-c3cccc([N+](=O)[O-])c3)cs/c2=N\c2ccc(Br)cc2)c(=O)n(-c2ccccc2)n1C | > 128 | > 128 |  |  | 
19 | CC(=O)c1cs/c(=N\c2ccccc2)n1-c1c(C)n(C)n(-c2ccccc2)c1=O | > 128 | > 128 |  |  | 

Row | SMILES | MIC50 (Candida albicans [1]) [µg/mL] | MIC80 (Candida albicans [2]) [µg/mL] | EC50 at 48 h [3] [µg/mL] | hemolysis at 1 h [4] [%] | EC50 at 48 h [5] [µg/mL]
20 | Cc1c(-n2c(-c3nccs3)cs/c2=N\c2ccccc2)c(=O)n(-c2ccccc2)n1C | > 128 | > 128 |  |  | 
21 | Cc1c(-n2c(-c3ccc(C#N)cc3)cs/c2=N\c2ccc(Br)cc2)c(=O)n(-c2ccccc2)n1C | > 128 | > 128 |  |  | 
22 | Cc1c(-n2c(-c3ccc(S(C)(=O)=O)cc3)cs/c2=N\c2ccccc2)c(=O)n(-c2ccccc2)n1C | > 128 | > 128 |  |  | 
23 | Cc1c(-n2c(-c3cccs3)cs/c2=N\c2ccccc2)c(=O)n(-c2ccccc2)n1C | > 128 | > 128 |  |  | 
24 | Cc1c(-n2c(-c3cccc(F)c3)cs/c2=N\c2ccccc2)c(=O)n(-c2ccccc2)n1C | > 128 | > 128 |  |  | 
25 | Cc1c(-n2c(-c3ccc(Br)cc3)cs/c2=N\c2ccc(Br)cc2)c(=O)n(-c2ccccc2)n1C | 1 (≈ 1.68 µM) | > 128 | > 50 | < 1 | > 50
26 | Cc1c(-n2c(-c3ccc(OC(F)(F)F)cc3)cs/c2=N\c2ccccc2)c(=O)n(-c2ccccc2)n1C | 8 (≈ 15.3 µM) | > 128 |  |  | 
27 | Cc1c(-n2c(-c3ccc4ccccc4c3)cs/c2=N\c2ccc3ccccc3c2)c(=O)n(-c2ccccc2)n1C | 0.5 (≈ 0.928 µM) | > 128 | > 50 | < 1 | > 50
28 | Cc1c(-n2c(-c3ccc(Cl)cc3Cl)cs/c2=N\c2ccccc2)c(=O)n(-c2ccccc2)n1C | > 128 | > 128 |  |  | 
29 | Cc1c(-n2c(-c3ccc4ccccc4c3)cs/c2=N\c2cccnc2)c(=O)n(-c2ccccc2)n1C | 32 (≈ 65.4 µM) | > 128 |  |  | 
30 | Cc1c(-n2c(-c3ccc(C#N)cc3)cs/c2=N\c2ccccc2)c(=O)n(-c2ccccc2)n1C | > 128 | > 128 |  |  | 
31 | Cc1c(-n2c(-c3cc4ccccc4oc3=O)cs/c2=N\c2ccccc2)c(=O)n(-c2ccccc2)n1C | > 128 | > 128 |  |  | 
32 | Cc1c(-n2c(-c3ccc(O)cc3)cs/c2=N\c2ccccc2)c(=O)n(-c2ccccc2)n1C | > 128 | > 128 |  |  | 
33 | Cc1c(-n2c(C3CCN(C(=O)OC(C)(C)C)CC3)cs/c2=N\c2ccccc2)c(=O)n(-c2ccccc2)n1C | > 128 | > 128 |  |  | 
34 | Cc1ccc(-c2cs/c(=N\c3ccccc3)n2-c2c(C)n(C)n(-c3ccccc3)c2=O)cc1 | 4 (≈ 8.84 µM) | > 128 |  |  | 
35 | Cc1c(-n2c(-c3ccncc3)cs/c2=N\c2ccc(Br)cc2)c(=O)n(-c2ccccc2)n1C | > 128 | > 128 |  |  | 
36 | C#CCOc1ccc(-c2cs/c(=N\c3ccccc3)n2-c2c(C)n(C)n(-c3ccccc3)c2=O)cc1 | > 128 | > 128 |  |  | 
37 | Cc1c(-n2c(-c3cc4ccccc4o3)cs/c2=N\c2ccccc2)c(=O)n(-c2ccccc2)n1C | 2 (≈ 4.18 µM) | > 128 |  |  | 
38 | Cc1c(-n2c(-c3ccc(Cl)cc3)cs/c2=N\c2ccccc2)c(=O)n(-c2ccccc2)n1C | 4 (≈ 8.46 µM) | > 128 |  |  | 

Row | SMILES | MIC50 (Candida albicans [1]) [µg/mL] | MIC80 (Candida albicans [2]) [µg/mL] | EC50 at 48 h [3] [µg/mL] | hemolysis at 1 h [4] [%] | EC50 at 48 h [5] [µg/mL]
39 | Cc1c(-n2c(-c3cccc(N)c3)cs/c2=N\c2ccccc2)c(=O)n(-c2ccccc2)n1C | > 128 | > 128 |  |  | 
40 | Cc1c(-n2c(-c3cccnc3)cs/c2=N\c2ccc(Br)cc2)c(=O)n(-c2ccccc2)n1C | > 128 | > 128 |  |  | 
41 | Cc1c(-n2c(-c3ccc4ccccc4c3)cs/c2=N\c2cccc(OCc3ccccc3)c2)c(=O)n(-c2ccccc2)n1C | > 128 | > 128 |  |  | 
42 | Cc1c(-n2c(-c3ccccc3)cs/c2=N\c2ccccc2)c(=O)n(-c2ccccc2)n1C | > 128 | > 128 |  |  | 
43 | Cc1c(-n2c(-c3ccc(Cl)cc3)cs/c2=N\c2ccc(Br)cc2)c(=O)n(-c2ccccc2)n1C | 8 (≈ 14.5 µM) | > 128 |  |  | 
44 | Cc1c(-n2c(-c3ccc(C(F)(F)F)cc3)cs/c2=N\c2ccc(Br)cc2)c(=O)n(-c2ccccc2)n1C | > 128 | > 128 |  |  | 
45 | Cc1c(-n2c(C34CC5CC(CC(C5)C3)C4)cs/c2=N\c2ccccc2)c(=O)n(-c2ccccc2)n1C | > 128 | > 128 |  |  | 
46 | Cc1c(-n2c(-c3ccccn3)cs/c2=N\c2ccc(Br)cc2)c(=O)n(-c2ccccc2)n1C | > 128 | > 128 |  |  | 
47 | Cc1c(-n2c(-c3ccc(I)cc3)cs/c2=N\c2ccccc2)c(=O)n(-c2ccccc2)n1C | > 128 | > 128 |  |  | 
48 | Cc1c(-n2c(-c3ccccn3)cs/c2=N\c2ccccc2)c(=O)n(-c2ccccc2)n1C | > 128 | > 128 |  |  | 
49 | Cc1c(-n2c(-c3ccc(F)cc3)cs/c2=N\c2ccc(Br)cc2)c(=O)n(-c2ccccc2)n1C | > 128 | > 128 |  |  | 
50 | Cc1c(-n2c(-c3ccc(C(F)(F)F)cc3)cs/c2=N\c2ccccc2)c(=O)n(-c2ccccc2)n1C | 4 (≈ 7.9 µM) | > 128 |  |  | 
51 | Cc1c(-n2c(-c3ccncc3)cs/c2=N\c2ccccc2)c(=O)n(-c2ccccc2)n1C | > 128 | > 128 |  |  | 
52 | Cc1c(-n2c(-c3ccc(O)c(C=O)c3)cs/c2=N\c2ccccc2)c(=O)n(-c2ccccc2)n1C | > 128 | > 128 |  |  | 
53 | Cc1c(-n2c(-c3ccc(-c4ccccc4)cc3)cs/c2=N\c2ccccc2)c(=O)n(-c2ccccc2)n1C | > 128 | > 128 |  |  | 
54 | Cc1c(-n2c(-c3ccccc3Cl)cs/c2=N\c2ccccc2)c(=O)n(-c2ccccc2)n1C | > 128 | > 128 |  |  | 
55 | COc1ccc2cc(-c3cs/c(=N\c4ccccc4)n3-c3c(C)n(C)n(-c4ccccc4)c3=O)ccc2c1 | > 128 | > 128 |  |  | 
56 | COc1ccc(-c2cs/c(=N\c3ccccc3)n2-c2c(C)n(C)n(-c3ccccc3)c2=O)cc1 | > 128 | > 128 |  |  | 
